Here are results for two compounds from patent publication US20250345318A1, “COMPOUND AND USE THEREOF IN PREVENTING OR TREATING RADIATION DAMAGE” (SIMCERE PHARMACEUTICAL CO., LTD., priority 2022, published 2025).

Data set [1] deals with JWA^IEC KO mice. Kind of data set: R-JAC4 in radiation enteritis model, JWA^IEC KO mice (Example 19). The data set is classed as in vivo. How it is done: (§1) Intestinal epithelial cell JWA-knockout mice (JWA^IEC KO) and their wild type littermates (JWA^IEC WT) were subjected to radiation enteritis modeling in the same manner as in Example 17 and were given R-JAC4 10 mg/kg treatment. In addition to the detection of FD4 concentration, the plasma was collected from the mice at the end of study to detect the plasma proinflammatory cytokine level by ELISA and the activity of antioxidant-related enzymes by biochemical tests.

In data set [2] the test system is JWA^IEC WT mice. Kind of data set: R-JAC4 in radiation enteritis model, JWA^IEC WT mice (Example 19). In kind it is in vivo. The following applies: R-JAC4 10 mg/kg. The protocol: as §1
The test system of data set [3] is Caco-2 cells. Kind of data set: Integrity of irradiated single Caco-2 cell layer: electric resistance, FD4 permeability (Example 23). To be noted: 20 Gy, 24 h later. The data set is classed as cell-based. How it is done: Caco-2 cells were cultured in a mixture of 78% MEM+20% FBS+1% P/S+1% NEAA and seeded in a 24-well chamber at a density of 10,000 cells/well, with the culture medium refreshed once every 2 days until day 11. The cells were then pretreated with DMSO or 1, 3, or 10 μM R-JAC4 for 3 days. The single cell layer model was constructed during the 14 days. The model was then irradiated at a dose of 0 Gy or 20 Gy at a dose rate of 2.5 Gy/min, and the electric resistance of the single cell layer and the permeability of FD4 were measured 24 h later.

Data set [4] has as its system C57/BL6 mice. Kind of data set: R-JAC4 in radiation enteritis mouse model: plasma FD4, small intestine length (Example 18). The data set is classed as in vivo. The following applies: R-JAC4 10 mg/kg and 3 mg/kg intragastric, ABI 12 Gy. How it is done:
The formulation of the vehicle for R-JAC4 was polyethylene glycol:ethanol:physiological saline=40:7.5:52.5, v/v/v. The vehicle group and the treatment groups were given the vehicle or treatment at the same volume by the same route.
The vehicle was administered to the vehicle control group intragastrically, and R-JAC4 10 mg/kg and R-JAC4 3 mg/kg interventions were given to the R-JAC4 treatment groups intragastrically. The treatment started 7 days before the X-ray radiation and was administrated once daily until the day before the end of study, for a total of […].
X-ray radiation: The mice were anesthetized intraperitoneally and exposed to ABI using an X-ray irradiator (12 Gy, 1.25 Gy/min). The irradiated region was a 3 cm region above the iliac joint below the chest, so as to induce gastrointestinal radiation syndrome.
Permeability detection in the small intestine: On day 4 post-radiation, FITC-dextran 4 kDa, abbreviated as FD4, was given to the mice intragastrically at a dose of 0.6 mg/g body weight. Peripheral blood was collected in an anticoagulation tube after 4 h, and the plasma was collected by centrifugation. The samples were added to a 96-well plate at 100 μL, and the fluorescence intensity was measured (excitation wavelength: 485 nm, emission wavelength: 535 nm). The FD4 concentrations of the samples were calculated by regression according to a standard curve. […]

Data set [5] is described as follows: Pharmacokinetics of R-JAC4 and S-JAC4 in mice (Example 17). The data set is classed as in vivo. To be noted: for F / clearance (CL) / AUC(0-t) / Cmax / Tmax / half-life / C0 / Vd: female BALB/c mice; for F: intragastric 10 mg/kg vs intravenous 3 mg/kg; for clearance (CL) / AUC(0-t) / Cmax / Tmax / half-life / C0 / Vd: mean, n = 3; for AUC(0-t) / Cmax / Tmax / half-life / C0 / Vd: mouse, plasma; for Vd: read-out: Vss.

Where [6] appears, read: R-JAC4, JWA^IEC KO mice vs vehicle control.
Where [7] appears, read: 1 μM R-JAC4 3 days pretreatment.
[8] abbreviates: 3 μM R-JAC4 3 days pretreatment.
Where [9] appears, read: single intravenous dose 3 mg/kg.
The mark [10] stands for this setting: po, single intragastric dose 10 mg/kg.

For `c1ccc(CSc2nnc([C@H]3COc4ccccc4O3)o2)nc1` [R-JAC4], the “plasma FD4 level” value in data set [1] (R-JAC4 10 mg/kg, JWA^IEC KO mice vs vehicle control) is given as “no significant change”. Also, in data set [1] (setting [6]), the “activity of plasma glutathione peroxidase and catalase” value is reported as “no significant changes”; the “plasma levels of proinflammatory cytokines TNF-α and IL-1β” value is given as “no significant changes”. Further, in data set [2], the “activity of plasma glutathione peroxidase and catalase” value is reported as “significantly increased”; the “plasma FD4 level” value is “significantly downregulated”; the “plasma levels of proinflammatory cytokines TNF-α and IL-1β” value is “significantly reduced”. Further, in data set [3] (setting [7]), the “electric resistance of the single Caco-2 cell layer” value (from here on “electric resistance”) is reported as 1016±64.65 Ω·cm^2 and the “permeability of FD4 through the single cell layer” value was 410.60 ± 50.99 ng/mL. Further, in data set [3] (setting [8]), the “electric resistance” value is given as 1138±25.97 Ω·cm^2 and the “permeability of FD4 through the single cell layer” value is 345.40 ± 29.85 ng/mL. Also, the “electric resistance” value in data set [3] (10 μM R-JAC4 3 days pretreatment) is reported as 1109±101.20 Ω·cm^2. Besides, the “shortening extent of the small intestine” value in data set [4] was “effective in reducing the shortening extent of the small intestine in a dose-dependent manner”. Moreover, the “concentration of fluorescein FD4 in the plasma” value in data set [4] (day 4 post-radiation) is listed as “dose-dependent down-regulation effect”. For the same compound, in data set [5] (BALB/c mice, calculated by F=(AUC-po/Dose-po)/(AUC-iv/Dose-iv)), the “oral bioavailability, comparison of isomers” value was “higher than that of S-JAC4”. Further, the F in data set [5] came to 3.94%. Further, in data set [5] (setting [9]), the “clearance (CL)” value is reported as 140 mL/min/kg, the AUC(0-t) stood at 374 ng·h/mL, the C0 came to 1680 ng/mL and the half-life was 36 min. Moreover, in data set [5] (setting [9]), the Vd came out at 3.64 L/kg. Also, in data set [5] (setting [10]), the AUC(0-t) was 49.5 ng·h/mL, the peak concentration (Cmax) was 176 ng/mL, the Tmax amounted to 4.98 min and the half-life was 22.7 min.

For the compound `c1ccc(CSc2nnc([C@@H]3COc4ccccc4O3)o2)nc1` [S-JAC4], the F in data set [5] was determined as 1.32%. In data set [5] (setting [9]), the “clearance (CL)” value is recorded as 121 mL/min/kg, the AUC(0-t) was 410 ng·h/mL, the C0 worked out at 1650 ng/mL and the half-life was 116 min. Also, the Vd in data set [5] (setting [9]) was determined as 7.72 L/kg. Moreover, in data set [5] (setting [10]), the AUC(0-t) turned out to be 17.2 ng·h/mL, the concentration peaked (Cmax) at 48.7 ng/mL, the time of peak concentration (Tmax) amounted to 4.98 min and the half-life was 27.1 min.
